Test results: patent US6258790A, “Antisense modulation of integrin α4 expression” (Isis Pharmaceuticals, Inc., priority 1999, dated 2001)

Test system: human integrin α4
Test: Inhibition of human integrin α4 protein levels by antisense oligonucleotides (LIPOFECTIN, flow cytometry with CD49d-FITC) in A375 melanoma cells
Format: cell-based
Set-up: % Inhib.: tested at 200 nM
Conditions: for % Control (integrin α4 protein) / % Inhib (integrin α4 protein): Table 1, 200 nM oligonucleotide, 6 ug/ml LIPOFECTIN; for inhibition (Example 11): Example 11 assay, dose not stated; for % CONTROL 48 hr / % INHIB 48 hr / % CONTROL 72 hr / % INHIB 72 HR: Table 2, A375
Text: Integrin α4 protein levels can be quantitated in a variety of ways well known in the art, such as immunoprecipitation, Western blot analysis (immunoblotting), ELISA or fluorescence-activated cell sorting (FACS). Antibodies directed to integrin α4 can be identified and obtained from a variety of sources, such as the MSRS catalog of antibodies (Aerie Corporation, Birmingham, Mich.), or can be prepared via conventional antibody generation methods.
Target sites are indicated by nucleotide numbers, as given in the sequence source reference (GenBank accession no. L12002), to which the oligonucleotide binds. All compounds in Table 1 are 18 nucleotides in length, with a phosphorothioate backbone and a centered 10-base deoxynucleotide gap flanked by 2'-methoxyethoxy (2'MOE) wings. Human A375 melanoma cells (American Type Culture Collection, Manassas, Va.) were plated at 2000 cells/cm^2 two days before oligonucleotide treatment. Cells were treated with oligonucleotides at a dose of 200 nM oligonucleotide and 6 ug/ml LIPOFECTIN for four hours. Cells were incubated overnight and harvested with 2 mM EDTA in PBS. Cells were washed in 2% bovine serum albumin, 0.2% sodium azide in D-PBS at 4° C. Cells were centrifuged at 200×g, and the supernatant was decanted. […] Antibodies were incubated with the cells for 30 minutes at 4° C. in the dark, under gentle agitation. Cells were washed again as above and then resuspended in 0.3 ml of FacsFlow buffer with 0.5% formaldehyde. Cells were analyzed on Becton Dickinson FACScan. Results are expressed as percentage of control expression based on mean fluorescence intensity.
Cells were harvested with trypsin at 48 and 72 hours after oligonucleotide treatment and stained with 2 ug/ml CD49d-FITC as in the previous example.
Where backbones are mixed, linkages are shown as "s" for phosphorothioate (P=S or PS) and "o" for phosphodiester (P=O or PO). Where target region is indicated as `M62841,` oligonucleotides are targeted to the promotor region whose sequence is described in GenBank Accession No. M62841. Remaining oligonucleotides are targeted to the sequence described in Genbank Accession No. L12002 and their target sites on the L12002 sequence are indicated.
Target sites refer to nucleotide numbers on the target sequence (GenBank Accession No. L12002) to which the oligonucleotides hybridize.
Oligonucleotides were synthesized as "gapmers" consisting of a 9-nucleotide region of deoxynucleotides flanked by three 2'-O-methoxyethyl(2'-MOE) nucleotides on the 5' end and eight 2'-MOE nucleotides on the 3' end. 2'-MOE nucleotides are shown in bold in the table. Oligonucleotides were synthesized with phosphorothioate backbones throughout, and all cytosines are 5-methylcytosines.

[1] = Table 24, A375 cells, lipofectin, as Example 8

“107236 (antisense GCCTCGCTTCCCAAGCCATG; chemistry not given here) [compound 107236]” was tested. Which “% Control” value [1] did it give?
Its value is 43%.

How did the “% Control (integrin α4 protein)” value (A375 cells) turn out when “24459 (GAAAATGACCAGCTCCGA; chemistry not given here) [compound 24459]” was run?
The value was 61%.

And the “% Inhib (integrin α4 protein)” value (A375 cells)?
The value was 39%.

Which “% Control” value (Table 4, 10 nM) does the source give for “24739 (TTTAGTGACAAAGACGTTAT; phosphorothioate deoxy, further chemistry not given here) [compound 24739]” here?
The value was 69%.

And the “% Inhib.” value (Table 4, 10 nM)?
Its value is 31%.

What about the “% Control” value (Table 4, 30 nM) of the same substance?
The value was 67%.

What about the “% Inhib.” value (Table 4, 30 nM) of the same substance?
Its value is 33%.

What about the “% Control” value (Table 4, 100 nM) of the same substance?
The value was 121%.

What about the “% Control” value (Table 4, 300 nM) of the same substance?
The value was 107%.

“24446 (GCGCGCTCTCAGTGTCCA; chemistry not given here) [compound 24446]” was tested. Which “% Control (integrin α4 protein)” value (A375 cells) did it give?
The value was 58%.

And the “% Inhib (integrin α4 protein)” value (A375 cells)?
The value was 42%.

“107249 (antisense CTTGTAAACAGTGTCTTTTA; chemistry not given here) [compound 107249]” was tested. Which “% Control” value [1] did it give?
Its value is 38%.

For “24473 (TCAGGGTGGCTTAAAGAA; chemistry not given here) [compound 24473]”, which “inhibition (Example 11)” value is on record?
Its value is no less than 40%.

And the “% Control (integrin α4 protein)” value (A375 cells)?
Its value is 53%.

What about the “% CONTROL 48 hr” value (50 nM) of the same substance?
Its value is 77%.

And the “% INHIB 48 hr” value (50 nM)?
The value was 23%.

What about the “% CONTROL 72 hr” value (50 nM) of the same substance?
Its value is 85%.

What about the “% INHIB 72 HR” value (50 nM) of the same substance?
Its value is 35%.

And the “% CONTROL 48 hr” value (100 nM)?
Its value is 49%.

And the “% INHIB 48 hr” value (100 nM)?
Its value is 51%.

And the “% CONTROL 72 hr” value (100 nM)?
The value was 77%.

And the “% INHIB 72 HR” value (100 nM)?
Its value is 23%.

And the “% CONTROL 48 hr” value (200 nM)?
Its value is 39%.

And the “% INHIB 48 hr” value (200 nM)?
Its value is 61%.

And the “% CONTROL 72 hr” value (200 nM)?
The value was 61%.

And the “% INHIB 72 HR” value (200 nM)?
The value was 39%.

And the “% CONTROL 48 hr” value (400 nM)?
The value was 42%.

What about the “% INHIB 48 hr” value (400 nM) of the same substance?
The value was 58%.

And the “% CONTROL 72 hr” value (400 nM)?
The value was 56%.

And the “% INHIB 72 HR” value (400 nM)?
Its value is 44%.

What about the “% Control” value (Table 6, 10 nM) of the same substance?
The value was 103%.

What about the “% Control” value (Table 6, 30 nM) of the same substance?
Its value is 92%.

What about the “% Control” value (Table 6, 100 nM) of the same substance?
Its value is 81%.

And the “% Inhib.” value (Table 6, 100 nM)?
Its value is 19%.

What about the “% Control” value (Table 6, 300 nM) of the same substance?
Its value is 47%.

And the “% Inhib.” value (Table 6, 300 nM (highest dose))?
Its value is 53%.

“24463 (TACACAAACACTCTTCCT; chemistry not given here) [compound 24463]” was tested. Which “% Control (integrin α4 protein)” value (A375 cells) did it give?
The value was 101%.

Which results are given for “24464 (TTTGTTTCCATTGCATTC; chemistry not given here) [compound 24464]”?
% Control (integrin α4 protein) (A375 cells): 62%; % Inhib (integrin α4 protein) (A375 cells): 38%

What does the source list for “24466 (TTGTCAATGTCGCCAAGA; chemistry not given here) [compound 24466]”?
% Control (integrin α4 protein) (A375 cells): 64%; % Inhib (integrin α4 protein) (A375 cells): 36%

How did the “% Control (integrin α4 protein)” value (A375 cells) turn out when “24472 (CTTGTCCTTAGCAAGACA; chemistry not given here) [compound 24472]” was run?
The value was 65%.

What about the “% Inhib (integrin α4 protein)” value (A375 cells) of the same substance?
The value was 35%.

With “24449 (GCACGTCTGGCCGGGATT; chemistry not given here) [compound 24449]” as the substance, how does the “% Control (integrin α4 protein)” value (A375 cells) read?
Its value is 61%.

What about the “% Inhib (integrin α4 protein)” value (A375 cells) of the same substance?
Its value is 39%.

With “26642 (TCAGGGTGGCTTAAAGAAGC; phosphorothioate, 2'-MOE/deoxy, further chemistry not given here) [compound 26642]” as the substance, how does the “inhibition (Example 11)” value read?
The value was no less than 40%.

And the “% Control” value (Table 6, 10 nM)?
Its value is 84%.

And the “% Inhib.” value (Table 6, 10 nM)?
Its value is 16%.

What about the “% Control” value (Table 6, 30 nM) of the same substance?
The value was 77%.

And the “% Inhib.” value (Table 6, 30 nM)?
Its value is 23%.

What about the “% Control” value (Table 6, 100 nM) of the same substance?
The value was 56%.

And the “% Inhib.” value (Table 6, 100 nM)?
Its value is 44%.

What about the “% Control” value (Table 6, 300 nM) of the same substance?
Its value is 23%.

What about the “% Inhib.” value (Table 6, 300 nM (highest dose)) of the same substance?
The value was 77%.

And the “% Control” value [1]?
The value was 67%.

What about the “% Inhib.” value [1] of the same substance?
Its value is 33%.

How did the “% Control” value [1] turn out when “107242 (antisense TGAGATCAACAGAAGTACAA; chemistry not given here) [compound 107242]” was run?
Its value is 44%.

With “24456 (CCCATCACAATTAAATCC; chemistry not given here) [compound 24456]” as the substance, how does the “% Control (integrin α4 protein)” value (A375 cells) read?
Its value is 76%.

And the “% Inhib (integrin α4 protein)” value (A375 cells)?
Its value is 24%.

With “107239 (antisense ACTTCCTTGCCCTTATATGA; chemistry not given here) [compound 107239]” as the substance, how does the “% Control” value [1] read?
Its value is 29%.
